Source: patent EP2423217A1, “Peptide and protein affinity tag from mistic protein” (Forschungsverbund Berlin E.V., priority 2010, dated 2012)
Where no end group is shown, it is not given here.

What was measured:
[1] = target: T1, MB peptide (Bacillus subtilis, UniProt Q5BU39); experiment: Temperature dependence of MB peptide tetramerization; assay type: physicochemical; set-up: made in house
Protocol: The tetramerization of MB peptide is however dependent on temperature and the salt concentration of the buffer. In general, the proportion of MB peptide forming a tetramer is reduced with increasing temperature. At approximately 70°C, only monomers of the MB peptide are present. As the salt concentration increases, the tetramerisation increases accordingly at neutral pH values.

[2] = physchem; conditions: aqueous buffer
[3] = target: T1, MB peptide; experiment: SPOT hybridization with TAMRA-MB: regeneration and reversibility; assay type: binding; set-up: made in house; host or cells: chemical SPOT synthesis on membrane (MultiPep synthesizer); conditions: 25 µM MB in 114 mM phosphate buffer with 50 mM NaF at pH 2.8, over night at 4°C; eight spots
Protocol: A SPOT-analysis was carried out in order to assess oligomerization of the MB peptide and its ability to tether molecules. This approach is analogous to that of affinity chromatography, in that a solid phase-bound synthesized MB peptide is used to bind and isolate a molecule of interest that is tagged with the protein affinity tag of the present invention.
The nitrocellulose membrane which contained the MB peptide was incubated, and thus hybridized, with TAMRA-MB (MB peptide to which the TAMRA colouring agent has been covalently attached). If the spots remained coloured after washing an oligomerisation was judged to have taken place. Solid-phase bound MB peptide was synthesized directly on the membranes. Whatman 50 filter paper (Whatman GmbH, Dassel, Germany) was used for membrane-bound peptide synthesis. SPOT positions with a diameter of 3 mm were defined by treating isolated locations on the membrane with coupling reagents. The membrane bound peptides were assembled by the SPOT synthesizer MultiPep (Intavis Bioanalytical Instruments AG, Köln, Germany) according to standard protocols.
Spotted membranes were washed and blocked according to standard protocols before hybridization. After rinsing once with incubation buffer membranes were hybridized with TAMRA-MB over night at 4 °C under agitation. Incubation results were documented by scanning the membranes with a HP scanjet at 600 dpi. […]

[4] = target: T1, MB peptide; experiment: CD spectroscopy of MB oligomerization at different pH values; assay type: physicochemical; set-up: made in house; conditions: for ratio 208 nm / 222 nm: 154 mM NaF; for oligomer state: AUC and CD spectroscopy
Description: The MB monomer is mostly unfolded (~70% random coil), whereby the MB tetramer forms an α-helix. […] This pH sensitive switchability is reversible and occurs completely and suddenly from pH 6.0 to 5.4.
• Figure 1: Molecular model of the secondary protein structure of the helical MB peptide. Hydrophobicity of the peptide MB is also indicated by differential after folding into an ideal helix. Hydrophilic groups are indicated with arrows from above, hydrophobic groups from below. (A) The hydrophobic areas in which the binding takes place. (B) View of the backside. • Figure 2: CD spectroscopy of MB at different pH values. Circular ellipticity of 50 µM MB at 208 nm or 222 nm was measured against buffer pH in 10 mM citrate or 10 mM phosphate buffer with 154 mM NaF at 20°C. Citrate buffer was applied for the pH range from pH 6.5 to 4 and phosphate buffer for the pH ranges 1.5 to 4 and 6.5 to 10. MB structure was uninfluenced by buffer type, because CD spectra in citrate buffer were equal to spectra in phosphate buffer in the overlapping pH regions. The wavelengths 208 nm and 222 nm are characteristic for α-helices. […] (A) The snapshots of the same membrane repeatedly hybridised (left) and regenerated (right) show similar results after each of the six repetitions. […] (B) Plot of the normalized median intensities of each spot against number of incubations. • Figure 4: Mutation analysis of the amino acids important in oligomerization. […] The amino acids numeration is shown as small numbers above the wild type letters, the wt sequence can be found in the middle (black frame). Letters listed vertically above the wt sequence intensify the interactions, letters below weaken or abolish. The bigger the letter size the stronger the influence, linear to the distance of the intensity to the wt mean intensity in times of SD, starting with a minimum of ±2 SD. • Figure 5: Summary of the single-point mutation and length analysis of the MB oligomerization (A) Single-point mutations substantially (p<0.05) influencing the oligomerization were grouped and are represented by bars above or below the wild type sequence (black frame).The amino acids numeration is shown as small numbers above the wild type letters. Bars above the wild type sequence signify an enhanced oligomerization and below a weakened or abolished. The bar size reflects the strength of the mutation's influences on the oligomerization. […] Amino acid positions which were especially mutation-susceptible are marked by a + or -. (B) MB was systematically truncated with a step size of two amino acids from either one of the termini or simultaneously both termini. The shortest still with TAMRA-MB oligomerizing truncates are shown in black frames.
In order to assess the oligomerization properties of MB peptide circular dichroism spectroscopy (CD spectroscopy) was carried out according to standard procedures. The MB tetramerization was triggered by acidic pH values while remaining unchanged in basic conditions. Starting from basic pH 10 down to slightly acidic pH 6 the structure of MB was invariable at constant concentrations. Between pH 6 to 5.4 a rapid and tremendous increase in helicity occurred. Below pH 5.4 the pronounced α-helical MB structure remained constant down to pH 1.5 (see Fig. 2).

In the case of “MKVTSEEKEQLSTAIDRMNEGLDAFIQLYNES [MB peptide]”, the “temperature at which only monomers are present” value [1] is reported as “approximately 70 °C”, the solubility [2] is reported as ≥ 2200 µM and the “consecutive incubations and regenerations with reproducible oligomerization” value [3] is reported as “six”. The “pH range of switch from monomer to α-helical tetramer (increase in helicity)” value ([4]; 50 µM MB, 10 mM citrate or 10 mM phosphate buffer with 154 mM NaF, 20°C) was 6 to 5.4, the random coil ([4]; MB monomer) was ~ 70% and the “ratio 208 nm / 222 nm” value ([4]; pH<5.4, 50 µM MB, 20°C) was 0.93. The “ratio 208 nm / 222 nm” value ([4]; pH>6, 50 µM MB, 20°C) was 2.18, the oligomer state ([4]; same concentration (50 µM), pH <5.4) was “converts completely into tetramer” and the oligomer state ([4]; up to 50 µM in phosphate buffer at pH 6.5) was “remains purely as monomer”.
